{"source": "patent US20060135587A1", "about": "“Method and compounds for promoting healing and reducing inflammation” (priority 2002, published 2006)", "key": {"[1]": {"system": "gastric and duodenal ulcer", "test": "Clinical trial in gastric and duodenal ulcer", "type": "in vivo, human", "conditions": "three 0.2 g tablets per day orally for three weeks", "protocol": "A clinical trial of the effect of Compound 2 on gastric and duodenal ulcer was carried out in several gastroenterological clinics in Russia. A total of 167 patients, 30 to 75 years old, was studied; of these 93 had duodenal ulcers and 74 had gastric ulcers. The results were monitored by gastroscopy at weekly intervals. Each patient continued to receive the treatment which s/he had been given prior to commencement of the trial. Compound 2 was administered in addition to the previous treatment. Compound 2 was given orally as three 0.2 g tablets per day over a period of three weeks, ie a total dose of […] for the treatment course, Compound 2 healed 80% of all the duodenal ulcers treated, and 54% of all the gastric ulcers treated. […] The effect of Compound 2 was compared with those of a placebo, or cimetidine. Even better results were obtained when Compound 2 was administered together with conventional therapy. […] Following termination of treatment with Compound 2 no ulceration was observed, ie there was no sign of the abstinence syndrome which is typically seen with H2-blockers and hormones. Compound 2 was an effective therapeutic agent with a pronounced reparative effect on erosive and ulcerating injuries of the gastroduodenal area."}, "experimental granuloma": {"system": "experimental granuloma", "test": "Cotton-wool granuloma (chronic proliferative inflammation) in rats", "type": "in vivo", "conditions": "100 mg/kg orally, 12 days", "protocol": "We investigated the ability of compound (2) to reduce the formation of granulation tissue in the inflammatory focus which develops at the site at which a non-sterile cotton-wool roll weighing 40 mg is implanted subcutaneously (Swingle and Shideman, 1972). Compound (2) was administered orally to male rats weighing 130-150 g at a dose of 100 mg/kg for 6 days before the cotton-wool roll was implanted, and then for 6 days at the same dose while the granuloma developed. Anti-inflammatory agents, such as ibuprofen and butadione, were used for comparison, using the same procedure. There were 10 rats in each group.\nAfter 12 days the experiment was terminated, and the granulomas were excised, weighed, and the wet weight of the granulation tissue was measured. The dry mass of the granuloma was measured after drying for 24 hours at 70° C., and the exudative and proliferative stages of the granulomas were calculated. Statistical analysis was performed using the Student's parametric test."}}}
{"smiles": "CC[n+]1cn(C)c(C(=O)NC)c1C(=O)NC.O=S(=O)([O-])c1ccccc1", "note": "[Compound 2, 1-methyl-3-ethyl-4,5-bis(N-methylcarbamoyl)-imidazolium benzenesulfonate]", "values": [{"measurement": "side effects", "setting": "[1]", "value": "No side effects were observed"}, {"measurement": "duodenal ulcers healed", "setting": "[1]; added to previous treatment", "value": 80, "unit": "%"}, {"measurement": "gastric ulcers healed", "setting": "[1]; added to previous treatment", "value": 54, "unit": "%"}, {"measurement": "Granuloma weight (mg) Dry weight", "setting": "experimental granuloma", "value": "180.71 ± 14.16", "unit": "mg"}, {"measurement": "Granuloma weight (mg) Exudative stage", "setting": "experimental granuloma", "value": 775.58, "unit": "mg"}, {"measurement": "Granuloma weight (mg) Fresh weight", "setting": "experimental granuloma", "value": "956.29 ± 115.5", "unit": "mg"}, {"measurement": "Granuloma weight (mg) Proliferative stages", "setting": "experimental granuloma", "value": 140.71, "unit": "mg"}]}
